Results published in US12054447B2, “PCNA inhibitors” (City of Hope, priority 2015, dated 2024).
pIC50: −log10 of the molar value.

Key:
SK-N-AS = assay: Cell growth, CellTitor-Glo assay, 72 h; format: cell-based; settings: Homo sapiens
Protocol: (§1) The human NB cell lines, SK-N-DZ, SK-N-BE(2)c, SK-N-AS, and LAN-5 obtained from the American Type Culture Collection (Rockville, MD), were cultured in DMEM with 10% fetal bovine serum (FBS), 100 units/ml penicillin, and 100 μg/ml streptomycin in the presence of 5% CO2 at 37° C. Human PBMCs from a healthy donor were purchased from Sanguine BioSciences (Valencia, CA) and grown in RPMI1640 with 10% FBS, 100 units/ml penicillin, 100 μg/ml streptomycin, and 10 ng/ml IL-2 in the presence of 5% CO2 at 37° C. Human embryonic progenitor cell line 7SM0032 was acquired from Millipore (Billerica, MA) and grown in the hEPM-1 Media Kit purchased from the same company. The plasmid pCBASce expresses the rare cutting I-SceI meganuclease. The U20S-derived cell lines, DR-GFP and EJ5-GFP, each contain a stably transfected reporter gene for DSB repair mediated by HR and end joining (EJ), respectively. These cell lines were cultured in DMEM medium with 10% FBS at 37° C. in the presence of 5% CO2.
(§2) To measure the effect of the compounds on cell growth, cells were seeded at 3×10^4/ml into a 96-well plate. Once attached, cells were treated with various concentrations of AOH1160 for 72 h. Cell growth was measured by the CellTitor-Glo assay (Promega, Madison, WI) according to the manufacturer's instructions. To measure apoptosis, cells were seeded at 1×10^5/ml onto a chamber slide. Once attached, cells were treated with the 500 nM AOH1160 for 24 h. Cells were fixed and analyzed by a TUNEL assay using the TMR red in situ cell death detection kit (Roche Diagnostics, Indianapolis, IN).

SK-N-BE(2)c = assay: Cell growth, CellTitor-Glo assay, 72 h; format: cell-based; settings: Homo sapiens
Protocol: as §1, §2

SK-N-DZ = assay: Cell growth, CellTitor-Glo assay, 72 h; format: cell-based; settings: Homo sapiens
Protocol: as §1, §2

PBMC = assay: Cell growth, CellTitor-Glo assay, 72 h; format: cell-based, human
Protocol: as §1, §2

neuroblastoma cell lines = assay: IC50 in Table 3, cell line not stated; format: cell-based; settings: Homo sapiens
Source text: In addition numerous analogs related to AOH1160 were screened in numerous neuroblastoma cell lines for anti-cancer activity (Table 2). AOH1160 was screened for anti-cancer activity in additional cancer cell lines besides neuroblastoma (Table 3).

7SM0032 = assay: Cell growth, CellTitor-Glo assay, 72 h; format: cell-based, human; settings: human neural crest stem cells (7SM0032)
Protocol: as §1, §2

NB cell lines = assay: Cell viability assay on NB cell lines; format: cell-based, human; settings: Homo sapiens; multiple NB cell lines; read-out: IC50 range over NB cell lines
Protocol: as §2
To identify small molecule compounds that target the PCNA and FEN1 interface, we started with known crystal structures of the PCNA/FEN1 complex that are available from the RCSB protein database. To improve the likelihood of identifying novel small molecules that specifically target caPCNA, we focused our virtual screen on the binding pocket in PCNA delineated by residues L126 and Y133 and screened databases consisting of more than 6.8 million chemical structures available at the AMRI. A set of 57 compounds identified by the virtual screen was acquired and further tested in a cell viability assay. A compound (AOH39) was selected for further development due to its anti-cancer activity and selectivity.

Compound	pIC50 (SK-N-AS)	pIC50 (neuroblastoma cell lines)	other results
O=C(CNC(=O)c1cccc2ccccc12)Nc1ccc(Cl)cc1Oc1ccccc1 [PCNA4]	6.73		pIC50 (SK-N-BE(2)c): 6.30; pIC50 (SK-N-DZ): 6.35; pIC50 (PBMC; Homo sapiens, PBMC (non-malignant)): < 4.70
O=C(CNC(=O)c1nccc2ccccc12)Nc1ccc(Oc2ccncc2)cc1 [AOH1179]	< 4.52	< 4.52	
O=C(CNC(=O)c1nccc2ccccc12)Nc1ccccc1Oc1ccccc1 [#1165]	4.46	4.46	
O=C(CNC(=O)c1nccc2ccccc12)Nc1ccccc1Oc1ccncc1 [#1167]		5.38	
O=C(CNC(=O)c1cncc2ccccc12)Nc1ccc(Oc2ccncc2)cc1 [AOH1180]	< 4.52	< 4.52	
O=C(CNC(=O)c1cncc2ccccc12)Nc1ccccc1Oc1ccncc1 [#1177]		< 4.52	
O=C(CNC(=O)c1cncc2ccccc12)Nc1ccccc1Oc1ccccc1 [#1175]	< 4.52	< 4.52	
O=C(CNC(=O)c1cccc2ccccc12)Nc1ccccc1Oc1ccncc1 [#1162]	< 4.30	< 4.30	
O=C(CNC(=O)c1cccc2ccccc12)Nc1ccccc1Cc1ccccc1 [AOH39, N-(2-((2-benzylphenyl)amino)-2-oxoethyl)-1-naphthamide, reference compound]			pIC50 (7SM0032): ~4.00; pIC50 (PBMC; human peripheral blood mononuclear cells (PBMC)): 4.81; pIC50 (NB cell lines): 5.55 to 5.89
O=C(CNC(=O)c1nccc2ccccc12)Nc1cccc(Oc2ccncc2)c1 [#1166]	< 4.52	4.47	
O=C(CNC(=O)c1cccc2ccccc12)Nc1ccc(Oc2ccncc2)cc1 [#1178]	5.96	5.96	
O=C(CNC(=O)c1cccc2ccccc12)Nc1cccc(Oc2ccncc2)c1 [#1161]	4.67	4.67	
O=C(CNC(=O)c1cncc2ccccc12)Nc1cccc(Oc2ccncc2)c1 [#1176]	< 4.52		
